Data from patent publication US10827753B2, “Compositions and methods for controlling nematodes” (Monsanto Technology LLC, priority 2007, dated 2020).
Where two headings read alike, the source gives them in different places. Marks after values point to notes of the source that are not given here.

How the values were obtained:
root knot nematode = assay: Pre-plant incorporated (PPI) greenhouse test of root knot nematode on cucumber plants; format: in vivo, Meloidogyne incognita; conditions: for pest or weed control at 2000 g/ha / pest or weed control at 4000 g/ha / pest or weed control at 8000 g/ha: Meloidogyne incognita, read-out: percent control (galling reduction) relative to the control blank treatment
Text: The PPI test examines the effect of pre-incorporation of compounds in soil and longer aging to simulate in furrow methods of nematicide application in the field. The PPI test exposes compounds to a higher volume of soil and drying which can result in more severe soil binding. Compounds are also aged for longer periods which can lead to more extensive biotic and abiotic degradation further limiting activity.
The chemically treated soil (sandy soil mix) for all treatment days (e.g., 7 days, 14 days, 21 days) treatments is potted into their appropriate pots. On the same day the 7 day treatment pots are seeded. One week later eggs are applied and 14 days after egg application the test is harvested. The 14 day treatments are planted 7 days after the first planting. The 14 day planting and 7 day inoculation happen on the same day. One week later the 14 day treatments are inoculated with eggs. These are harvested 14 days after the inoculation. The 21 day treatments are planted 14 days after the first planting. The 14 day inoculation and 21 day planting are done on the same day. One week later the 21 day plants are inoculated with eggs. The 7 day treatment is harvested the same day as the 21 day inoculation. Fourteen days after inoculation the 21 day plants are harvested.
For each compound a stock is prepared using 4 mg material in 4 ml of acetone. The soil is mixed by placing 80 ml of field soil and 320 ml of sand in a plastic bag and mixing well. The formulation for treatment is done by adding 2.13 ml (8 kg/ha rate), 1.06 ml (4 kg/ha rate) or 0.53 ml (2 kg/ha rate) to a vial and raising it with 10 ml in 0.05%×100. Soil is then treated by adding the entire 10 ml to the 400 ml of mix in the bag. The treated soil is immediately mixed well in the sealed bag to distribute the compound evenly. Approximately 95 ml is used to fill each 2-inch square pot up to the top with some soil compression and flattening. For each compound and for the control treatments 4 pots are filled. All pots are watered until moist but with no run-out through the bottom.
The PPI test simulates 8, 4 and 2 kg/ha rates incorporated 15 cm deep in the field and is equivalent to the 2, 1 and 0.5 kg/ha drench application rates in the standard 2-inch pot cucumber greenhouse assay.

root knot nematode (RKN) = assay: RKN greenhouse soil assay on cucumber plants; format: in vivo, Meloidogyne incognita
Procedure, shortened: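 Cucumber in sandy soil in pots drenched with 5 ml compound solution (acetone in 0.05% Triton X 100; 1 mg per four pots = 1 kg/ha), 7 days or 0 days before inoculation. Root knot nematode eggs applied ≥4 h after treatment; galling rated 14 days after inoculation, four replicates.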

Meloidogyne incognita = assay: M. incognita miniaturized greenhouse assay on cucumber seedlings (root galling); format: in vivo; parameters: key to 1 ppm gall ratings / 1 ppm gall rating: mean of 3 gall ratings: 0=0-5%, 1=6-20%, 2=21-50%, 3=51-100% root galled; conditions: for 8 ppm gall ratings: average of triplicate gall rating, scale 0-3 (% root mass galled)
Procedure, shortened: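 Compound in acetone/Triton X100 stock (5 mg/mL) diluted into water with 0.015% Triton X100 and applied to sand-planted sprouted cucumber seedlings; inoculated with 500 M. incognita eggs two days after planting. Roots harvested 10–12 days later; galling scored 0–3 by % root mass galled, averaged over triplicates, plus visual root phytotoxicity rating.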

[1] = fourteen day pre-plant incorporated, 2 kg/ha rate, test a
[2] = fourteen day pre-plant incorporated, 4 kg/ha rate, test a
[3] = fourteen day pre-plant incorporated, 4 kg/ha rate, test b
[4] = fourteen day pre-plant incorporated, 8 ka/ha rate, test a
[5] = fourteen day pre-plant incorporated, 8 ka/ha rate, test b
[6] = 0 day treatment, 0.05 kg/ha, test a
[7] = 0 day treatment, 0.1 kg/ha, test a
[8] = 0 day treatment, 0.25 kg/ha, test a
[9] = 24 h, twenty one day pre-plant incorporated, 4 kg/ha rate
[10] = 24 h, twenty one day pre-plant incorporated, 8 ka/ha rate
[11] = 0 day treatment, 1 kg/ha, test b
[12] = Acetone 1 mg/kg, standard 10% acetone in 0.05% Triton X 100 formulation
[13] = Radex 1 mg/kg, emulsifiable concentrate, 6.25% active ingredient by weight

| SMILES | pest or weed control at 2000 g/ha (root knot nematode; [1]) [%] | pest or weed control at 4000 g/ha (root knot nematode; [2]) [%] | pest or weed control at 8000 g/ha (root knot nematode; [4]) [%] | percent control (galling reduction) relative to the control blank treatment (root knot nematode (RKN); [6]) | percent control (galling reduction) relative to the control blank treatment (root knot nematode (RKN); [7]) | percent control (galling reduction) relative to the control blank treatment (root knot nematode (RKN); [8]) [%] | 1 ppm gall ratings (Meloidogyne incognita; Table 1B test a) | 1 ppm gall ratings (Meloidogyne incognita; Table 1B test b) | 1 ppm gall ratings (Meloidogyne incognita; Table 1B test e) | pest or weed control at 4000 g/ha (root knot nematode; [9]) [%] | pest or weed control at 8000 g/ha (root knot nematode; [10]) [%] | percent control (galling reduction) relative to the control blank treatment (root knot nematode (RKN); [11]) | 1 ppm gall ratings (Meloidogyne incognita; Table 1B test c) | 1 ppm gall ratings (Meloidogyne incognita; Table 1B test d) | 1 ppm gall rating (Meloidogyne incognita; Table 1C test a) | 1 ppm gall rating (Meloidogyne incognita; Table 1C test b) | 1 ppm gall rating (Meloidogyne incognita; Table 1D test a) | 8 ppm gall rating (Meloidogyne incognita; Table 1D test a) | 8 ppm gall ratings (Meloidogyne incognita) | percent control (galling reduction) relative to the appropriate control blank treatment (root knot nematode (RKN); [12]) [%] | other results |
| --- | --- | --- | --- | --- | --- | --- | --- | --- | --- | --- | --- | --- | --- | --- | --- | --- | --- | --- | --- | --- | --- |
| Cc1cc(Cl)ccc1-c1noc(-c2ccco2)n1 [compound 5823] | 85 | 98 | 100 | 53% | 85% | 95 | 1.67 | 0.33 | 0.33 | – | – | – | – | – | – | – | – | – | – | – | pest or weed control at 4000 g/ha (root knot nematode; [3]): 94%; pest or weed control at 8000 g/ha (root knot nematode; [5]): 100%; percent control (galling reduction) relative to the control blank treatment (root knot nematode (RKN); 0 day treatment, 0.05 kg/ha, test c): 38%; percent control (galling reduction) relative to the control blank treatment (root knot nematode (RKN); 0 day treatment, 0.1 kg/ha, test c): 91%; percent control (galling reduction) relative to the control blank treatment (root knot nematode (RKN); 0 day treatment, 0.25 kg/ha, test c): 98% |
| Brc1ccc(-c2cnc(-c3cccs3)o2)cc1 [compound 4776] | – | – | – | – | – | – | 1 (1=6-20%) | 1 (1=6-20%) | – | 50 | 80 | — 99^b percent | 0.33 | 0.33 | 1 (1=6-20%) | 0.33 | 0^a (0=0-5%) | 0^a (0=0-5%) | 0 (0=0-5%) | – | 1 ppm gall rating (Meloidogyne incognita; Table 1C test c): 1 (1=6-20%) |
| c1ccc(-c2noc(-c3cccs3)n2)cc1 [compound 1822] | 67 | 97 | 100 | 7^a percent | 47^a percent | 60 | 0.33 | 0.67 | – | 82 | 95 | 81% | 0.33 | 0 (0=0-5%) | 0 (0=0-5%) | 0.33 | 1.33^a | 0^a (0=0-5%) | 0 (0=0-5%) | 94 | pest or weed control at 4000 g/ha (root knot nematode; 168 h, seven day pre-plant incorporated, 4 kg/ha rate): 99%; pest or weed control at 8000 g/ha (root knot nematode; 168 h, seven day pre-plant incorporated, 8 ka/ha rate): 99%; percent control (galling reduction) relative to the control blank treatment (root knot nematode (RKN); 0 day treatment, 0.25 kg/ha, test b): 64%; percent control (galling reduction) relative to the control blank treatment (root knot nematode (RKN); 0 day treatment, 1 kg/ha, test a): 89%; percent control (galling reduction) relative to the control blank treatment (root knot nematode (RKN); 7 day treatment, 1 kg/ha, test a): 85%; percent control (galling reduction) relative to the control blank treatment (root knot nematode (RKN); 7 day treatment, 1 kg/ha, test b): 75%; percent control (galling reduction) relative to the appropriate control blank treatment (root knot nematode (RKN); [13]): 98% |
| CCOP(=O)(NC(C)C)Oc1ccc(SC)c(C)c1 (stereo not shown) [Fenamiphos, fenamiphos, reference compound] | – | – | – | – | – | – | – | – | 0^c, 0^d, 0^e (0=0-5%) | – | – | – | 0^c, 0^d, 0^e (0=0-5%) | 0^c, 0^d, 0^e (0=0-5%) | – | – | – | – | – | 98 | percent control (galling reduction) relative to the control blank treatment (root knot nematode; [1]): 88^a percent; percent control (galling reduction) relative to the control blank treatment (root knot nematode; [2]): 99^a percent; percent control (galling reduction) relative to the control blank treatment (root knot nematode; [3]): 100^b percent; percent control (galling reduction) relative to the control blank treatment (root knot nematode; [4]): 100^a percent; percent control (galling reduction) relative to the control blank treatment (root knot nematode; [5]): 100^b percent; percent control (galling reduction) relative to the control blank treatment (root knot nematode; seven day pre-plant incorporated, 4 kg/ha rate): 96%; percent control (galling reduction) relative to the control blank treatment (root knot nematode; seven day pre-plant incorporated, 8 ka/ha rate): 100%; percent control (galling reduction) relative to the control blank treatment (root knot nematode; twenty one day pre-plant incorporated, 4 kg/ha rate): 84%; percent control (galling reduction) relative to the control blank treatment (root knot nematode; twenty one day pre-plant incorporated, 8 ka/ha rate): 99%; percent control (galling reduction) relative to the appropriate control blank treatment (root knot nematode (RKN); [13]): 99% |
